Laboratory results from article PMC4447944 (The Journal of Biological Chemistry, 2015).

How the values were obtained:
hABL1(pM351T) = target: T1, hABL1(pM351T) (Homo sapiens, UniProt P00519, M351T); experiment: KINOMEscan; assay type: binding
T1 construct: purchased DiscoverX (KINOMEscan platform)

hADCK4 = target: T2, hADCK4 (Homo sapiens, UniProt Q96D53); experiment: KINOMEscan; assay type: binding
T2 construct: purchased DiscoverX

bacPKNB = target: T3, bacPKNB (Mycobacterium tuberculosis, UniProt P9WI81); experiment: KINOMEscan; assay type: binding
T3 construct: purchased DiscoverX
T3 sequence (P9WI81 whole entry): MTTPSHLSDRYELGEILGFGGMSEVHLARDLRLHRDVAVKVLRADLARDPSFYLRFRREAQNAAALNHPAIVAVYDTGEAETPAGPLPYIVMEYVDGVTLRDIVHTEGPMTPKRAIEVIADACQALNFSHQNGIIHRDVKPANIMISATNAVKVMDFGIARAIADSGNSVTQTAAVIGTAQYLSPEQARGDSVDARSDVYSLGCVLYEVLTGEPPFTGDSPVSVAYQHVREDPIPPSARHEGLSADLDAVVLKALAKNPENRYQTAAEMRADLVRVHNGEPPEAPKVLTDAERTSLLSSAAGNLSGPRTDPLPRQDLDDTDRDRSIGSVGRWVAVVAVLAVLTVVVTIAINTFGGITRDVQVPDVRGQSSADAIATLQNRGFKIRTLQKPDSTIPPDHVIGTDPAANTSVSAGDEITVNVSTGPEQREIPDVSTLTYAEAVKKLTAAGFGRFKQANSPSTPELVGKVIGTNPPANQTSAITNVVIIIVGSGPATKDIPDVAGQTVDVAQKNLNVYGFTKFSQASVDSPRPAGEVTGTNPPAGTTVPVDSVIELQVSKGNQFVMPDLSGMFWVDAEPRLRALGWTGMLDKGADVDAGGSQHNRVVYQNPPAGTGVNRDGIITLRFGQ

hBRSK2 = target: T4, hBRSK2 (Homo sapiens, UniProt Q8IWQ3); experiment: KINOMEscan; assay type: binding
T4 construct: purchased DiscoverX

hCSF1R-autoinhib = target: T5, hCSF1R-autoinhib (Homo sapiens, UniProt P07333); experiment: KINOMEscan; assay type: binding; details: read-out: Inhibition at the 20 μM dose
T5 construct: purchased DiscoverX (KINOMEscan platform)

hDRAK2 = target: T6, hDRAK2 (Homo sapiens, UniProt O94768); experiment: KINOMEscan; assay type: binding
T6 construct: purchased DiscoverX

hDYRK1A = target: T7, hDYRK1A (Homo sapiens, UniProt Q13627); experiment: KINOMEscan; assay type: binding
T7 construct: purchased DiscoverX

hEPHA4 = target: T8, hEPHA4 (Homo sapiens, UniProt P54764); experiment: KINOMEscan; assay type: binding
T8 construct: purchased DiscoverX
T8 sequence (P54764 20-986): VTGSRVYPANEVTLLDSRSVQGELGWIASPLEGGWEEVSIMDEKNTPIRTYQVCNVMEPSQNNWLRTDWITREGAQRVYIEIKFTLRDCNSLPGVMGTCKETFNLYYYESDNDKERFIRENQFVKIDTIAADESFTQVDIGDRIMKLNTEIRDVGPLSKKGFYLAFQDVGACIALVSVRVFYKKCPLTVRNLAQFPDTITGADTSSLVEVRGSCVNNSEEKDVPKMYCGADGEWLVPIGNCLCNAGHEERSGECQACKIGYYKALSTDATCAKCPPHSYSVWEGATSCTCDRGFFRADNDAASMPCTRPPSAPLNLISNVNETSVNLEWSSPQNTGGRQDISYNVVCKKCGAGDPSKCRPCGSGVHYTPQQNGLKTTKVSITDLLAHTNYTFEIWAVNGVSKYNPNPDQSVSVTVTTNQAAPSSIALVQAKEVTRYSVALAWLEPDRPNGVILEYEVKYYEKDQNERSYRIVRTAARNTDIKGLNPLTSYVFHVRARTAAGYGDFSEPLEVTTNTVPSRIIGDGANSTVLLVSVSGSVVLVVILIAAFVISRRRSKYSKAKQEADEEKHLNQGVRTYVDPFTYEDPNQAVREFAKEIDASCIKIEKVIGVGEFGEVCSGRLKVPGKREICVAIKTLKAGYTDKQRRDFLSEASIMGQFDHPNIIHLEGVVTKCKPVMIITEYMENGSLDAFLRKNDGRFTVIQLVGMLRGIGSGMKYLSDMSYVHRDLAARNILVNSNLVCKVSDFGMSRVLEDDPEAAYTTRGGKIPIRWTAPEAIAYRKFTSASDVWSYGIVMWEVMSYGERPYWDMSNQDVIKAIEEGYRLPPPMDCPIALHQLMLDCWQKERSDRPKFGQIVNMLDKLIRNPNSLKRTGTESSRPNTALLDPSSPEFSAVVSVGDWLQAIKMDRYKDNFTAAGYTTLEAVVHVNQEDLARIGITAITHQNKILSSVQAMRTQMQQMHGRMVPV

hEPHA5 = target: T9, hEPHA5 (Homo sapiens, UniProt P54756); experiment: KINOMEscan; assay type: binding
T9 construct: purchased DiscoverX
T9 sequence (P54756 25-1037): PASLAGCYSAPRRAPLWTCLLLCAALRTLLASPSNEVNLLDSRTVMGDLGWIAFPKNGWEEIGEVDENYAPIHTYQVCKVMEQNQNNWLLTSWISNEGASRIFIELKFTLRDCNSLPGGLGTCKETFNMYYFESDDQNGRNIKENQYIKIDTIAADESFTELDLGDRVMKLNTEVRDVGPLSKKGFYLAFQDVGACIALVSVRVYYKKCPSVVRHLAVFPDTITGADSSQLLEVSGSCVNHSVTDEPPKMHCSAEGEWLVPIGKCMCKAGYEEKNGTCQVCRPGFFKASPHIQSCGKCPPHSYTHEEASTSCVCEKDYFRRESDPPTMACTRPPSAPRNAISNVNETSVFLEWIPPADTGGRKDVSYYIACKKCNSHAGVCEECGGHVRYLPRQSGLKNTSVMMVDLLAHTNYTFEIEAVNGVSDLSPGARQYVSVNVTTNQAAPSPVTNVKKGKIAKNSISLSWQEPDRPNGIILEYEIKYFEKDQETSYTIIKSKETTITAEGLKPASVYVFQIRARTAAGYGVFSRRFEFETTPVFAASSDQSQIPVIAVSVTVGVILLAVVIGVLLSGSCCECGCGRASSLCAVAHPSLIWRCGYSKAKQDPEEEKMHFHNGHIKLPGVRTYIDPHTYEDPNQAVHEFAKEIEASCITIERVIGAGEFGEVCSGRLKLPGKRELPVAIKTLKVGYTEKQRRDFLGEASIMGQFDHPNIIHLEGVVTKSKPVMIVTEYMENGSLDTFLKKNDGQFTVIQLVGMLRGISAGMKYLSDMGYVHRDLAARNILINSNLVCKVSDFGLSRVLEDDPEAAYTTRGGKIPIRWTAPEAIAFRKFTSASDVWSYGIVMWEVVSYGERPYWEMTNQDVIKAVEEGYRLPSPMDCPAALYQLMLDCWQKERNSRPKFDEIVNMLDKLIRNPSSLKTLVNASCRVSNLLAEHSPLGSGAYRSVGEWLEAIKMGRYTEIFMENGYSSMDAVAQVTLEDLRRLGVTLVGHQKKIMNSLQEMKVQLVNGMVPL

hFGR = target: T10, hFGR (Homo sapiens, UniProt P09769); experiment: KINOMEscan; assay type: binding
T10 construct: purchased DiscoverX

hFLT3 = target: T11, hFLT3 (Homo sapiens, UniProt P36888); experiment: KINOMEscan; assay type: binding
T11 construct: purchased DiscoverX

hIRAK4 = target: T12, hIRAK4 (Homo sapiens, UniProt Q9NWZ3); experiment: KINOMEscan; assay type: binding
T12 construct: purchased DiscoverX (KINOMEscan panel)

hKIT-autoinhibited = target: T13, hKIT-autoinhibited (Homo sapiens, UniProt P10721); experiment: KINOMEscan; assay type: binding
T13 construct: purchased DiscoverX (KINOMEscan platform)

hLIMK1 = target: T14, hLIMK1 (Homo sapiens, UniProt P53667); experiment: KINOMEscan; assay type: binding
T14 construct: purchased DiscoverX (KINOMEscan platform)

hMAST1 = target: T15, hMAST1 (Homo sapiens, UniProt Q9Y2H9); experiment: KINOMEscan; assay type: binding
T15 construct: purchased DiscoverX

hMEK3 = target: T16, hMEK3 (Homo sapiens, UniProt P46734); experiment: KINOMEscan; assay type: binding
T16 construct: purchased DiscoverX

hMEK6 = target: T17, hMEK6 (Homo sapiens, UniProt P52564); experiment: KINOMEscan; assay type: binding
T17 construct: purchased DiscoverX

hMLCK = target: T18, hMLCK (Homo sapiens, UniProt Q32MK0); experiment: KINOMEscan; assay type: binding
T18 construct: purchased DiscoverX

hRIPK4 = target: T19, hRIPK4 (Homo sapiens, UniProt P57078); experiment: KINOMEscan; assay type: binding
T19 construct: purchased DiscoverX (KINOMEscan platform)
T19 sequence (P57078 whole entry): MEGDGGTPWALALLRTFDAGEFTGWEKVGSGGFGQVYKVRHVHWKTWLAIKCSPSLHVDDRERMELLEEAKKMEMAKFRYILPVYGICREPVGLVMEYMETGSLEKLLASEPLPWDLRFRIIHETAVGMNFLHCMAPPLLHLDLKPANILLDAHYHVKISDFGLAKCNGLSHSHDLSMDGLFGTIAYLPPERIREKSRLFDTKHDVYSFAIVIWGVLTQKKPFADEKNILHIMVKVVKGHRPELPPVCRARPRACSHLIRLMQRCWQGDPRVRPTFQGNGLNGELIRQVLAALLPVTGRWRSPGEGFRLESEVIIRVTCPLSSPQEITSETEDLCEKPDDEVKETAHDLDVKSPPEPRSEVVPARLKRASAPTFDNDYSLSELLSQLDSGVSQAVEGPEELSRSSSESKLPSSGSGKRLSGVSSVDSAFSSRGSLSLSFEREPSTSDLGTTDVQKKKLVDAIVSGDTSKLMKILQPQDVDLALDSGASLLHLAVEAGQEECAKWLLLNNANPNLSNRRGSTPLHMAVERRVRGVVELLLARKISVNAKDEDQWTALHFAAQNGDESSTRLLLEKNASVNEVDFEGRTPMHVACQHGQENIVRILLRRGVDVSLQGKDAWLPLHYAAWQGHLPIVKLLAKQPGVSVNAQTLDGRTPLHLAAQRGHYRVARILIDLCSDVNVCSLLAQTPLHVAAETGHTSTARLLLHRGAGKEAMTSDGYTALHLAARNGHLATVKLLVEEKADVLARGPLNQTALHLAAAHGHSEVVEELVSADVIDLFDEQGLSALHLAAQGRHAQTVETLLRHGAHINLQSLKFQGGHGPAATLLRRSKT

[1] = target: T20, hRPS6KA5(Kin.Dom.2-C-term) (Homo sapiens, UniProt O75582); experiment: KINOMEscan; assay type: binding
T20 construct: hRPS6KA5(Kin.Dom.2-C-term); purchased DiscoverX (KINOMEscan platform)
T20 sequence (O75582 426-687 limits assumed): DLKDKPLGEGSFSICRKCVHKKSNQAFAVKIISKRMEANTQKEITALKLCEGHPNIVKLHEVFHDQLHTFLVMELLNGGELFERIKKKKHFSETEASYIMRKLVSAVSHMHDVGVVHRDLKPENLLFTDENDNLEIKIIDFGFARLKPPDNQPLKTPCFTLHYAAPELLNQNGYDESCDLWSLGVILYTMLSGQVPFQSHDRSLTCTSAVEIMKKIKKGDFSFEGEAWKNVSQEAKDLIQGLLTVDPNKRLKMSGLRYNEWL

hSIK = target: T21, hSIK (Homo sapiens, UniProt P57059); experiment: KINOMEscan; assay type: binding
T21 construct: purchased DiscoverX (KINOMEscan platform)

hTAK1 = target: T22, hTAK1 (Homo sapiens, UniProt O43318); experiment: KINOMEscan; assay type: binding
T22 construct: purchased DiscoverX

hTAOK2 = target: T23, hTAOK2 (Homo sapiens, UniProt Q9UL54); experiment: KINOMEscan; assay type: binding
T23 construct: purchased DiscoverX

hTRKA = target: T24, hTRKA (Homo sapiens, UniProt P04629); experiment: KINOMEscan; assay type: binding
T24 construct: purchased DiscoverX

hYANK1 = target: T25, hYANK1 (Homo sapiens, UniProt Q8WU08); experiment: KINOMEscan; assay type: binding
T25 construct: purchased DiscoverX

hRARα = target: T26, hRARα (Homo sapiens, UniProt P10276); experiment: Nuclear hormone receptor assay (Eurofins-CEREP); details: read-out: Relative IC50
T26 construct: Eurofins-CEREP
T26 sequence (P10276 whole entry): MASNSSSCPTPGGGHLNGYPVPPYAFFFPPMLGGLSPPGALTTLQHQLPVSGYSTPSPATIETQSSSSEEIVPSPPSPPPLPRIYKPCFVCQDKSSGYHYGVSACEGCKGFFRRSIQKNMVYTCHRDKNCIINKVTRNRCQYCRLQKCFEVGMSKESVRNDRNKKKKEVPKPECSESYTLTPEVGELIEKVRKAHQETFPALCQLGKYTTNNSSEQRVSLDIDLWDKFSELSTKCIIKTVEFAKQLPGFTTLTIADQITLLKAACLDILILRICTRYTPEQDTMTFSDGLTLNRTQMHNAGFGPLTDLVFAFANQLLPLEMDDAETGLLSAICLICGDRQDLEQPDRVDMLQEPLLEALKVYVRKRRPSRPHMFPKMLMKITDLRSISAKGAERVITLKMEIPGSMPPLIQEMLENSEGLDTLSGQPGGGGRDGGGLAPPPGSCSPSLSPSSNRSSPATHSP

hADORA3 = target: T27, hADORA3 (Homo sapiens, UniProt P0DMS8); experiment: cAMP Agonist (Eurofins-CEREP); details: @ 10 μM
T27 sequence (P0DMS8 1-318): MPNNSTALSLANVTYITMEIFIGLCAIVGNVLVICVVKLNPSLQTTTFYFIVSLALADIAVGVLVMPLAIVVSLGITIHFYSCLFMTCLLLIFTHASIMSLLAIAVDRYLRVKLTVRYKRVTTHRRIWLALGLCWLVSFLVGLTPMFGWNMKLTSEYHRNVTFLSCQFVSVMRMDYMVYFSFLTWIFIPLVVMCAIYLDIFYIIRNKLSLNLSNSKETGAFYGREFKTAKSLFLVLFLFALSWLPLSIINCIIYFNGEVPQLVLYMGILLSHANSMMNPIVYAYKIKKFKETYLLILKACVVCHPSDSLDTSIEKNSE

hADRα2A = target: T28, hADRα2A (Homo sapiens, UniProt P08913); experiment: cAMP Agonist (Eurofins-CEREP); details: @ 10 μM
T28 sequence (P08913 1-465): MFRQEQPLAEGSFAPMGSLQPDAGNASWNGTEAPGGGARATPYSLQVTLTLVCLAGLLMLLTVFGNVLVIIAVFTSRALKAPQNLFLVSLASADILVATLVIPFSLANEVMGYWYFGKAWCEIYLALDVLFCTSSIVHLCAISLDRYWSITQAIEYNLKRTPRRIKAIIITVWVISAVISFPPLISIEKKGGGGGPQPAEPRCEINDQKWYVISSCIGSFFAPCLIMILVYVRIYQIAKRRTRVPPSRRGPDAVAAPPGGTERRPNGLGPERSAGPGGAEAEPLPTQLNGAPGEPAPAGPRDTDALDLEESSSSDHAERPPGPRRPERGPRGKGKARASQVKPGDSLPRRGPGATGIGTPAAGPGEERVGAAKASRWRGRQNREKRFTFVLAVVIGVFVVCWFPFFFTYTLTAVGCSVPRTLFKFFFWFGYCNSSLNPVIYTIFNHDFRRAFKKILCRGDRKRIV

hADRβ1 [2] = target: T29, hADRβ1 (Homo sapiens, UniProt P08588); experiment: cAMP Potentiation (Eurofins-CEREP); details: @ 10 μM
T29 sequence (P08588 whole entry): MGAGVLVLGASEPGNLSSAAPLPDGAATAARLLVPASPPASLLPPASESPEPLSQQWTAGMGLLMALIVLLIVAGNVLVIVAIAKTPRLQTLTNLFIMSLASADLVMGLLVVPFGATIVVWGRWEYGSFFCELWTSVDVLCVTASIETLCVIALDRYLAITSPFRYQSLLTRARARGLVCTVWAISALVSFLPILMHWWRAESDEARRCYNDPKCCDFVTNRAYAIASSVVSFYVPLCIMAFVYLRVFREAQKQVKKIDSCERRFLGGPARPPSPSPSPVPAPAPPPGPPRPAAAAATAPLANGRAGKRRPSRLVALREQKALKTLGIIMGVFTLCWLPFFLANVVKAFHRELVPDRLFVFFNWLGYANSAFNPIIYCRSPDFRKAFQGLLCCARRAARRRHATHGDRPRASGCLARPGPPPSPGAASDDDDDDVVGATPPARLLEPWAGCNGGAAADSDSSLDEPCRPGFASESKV

hADRβ2 = hADRβ2 (Homo sapiens, UniProt P07550); experiment: cAMP Potentiation (Eurofins-CEREP); details: @ 10 μM
Chain of hADRβ2 (P07550 whole entry): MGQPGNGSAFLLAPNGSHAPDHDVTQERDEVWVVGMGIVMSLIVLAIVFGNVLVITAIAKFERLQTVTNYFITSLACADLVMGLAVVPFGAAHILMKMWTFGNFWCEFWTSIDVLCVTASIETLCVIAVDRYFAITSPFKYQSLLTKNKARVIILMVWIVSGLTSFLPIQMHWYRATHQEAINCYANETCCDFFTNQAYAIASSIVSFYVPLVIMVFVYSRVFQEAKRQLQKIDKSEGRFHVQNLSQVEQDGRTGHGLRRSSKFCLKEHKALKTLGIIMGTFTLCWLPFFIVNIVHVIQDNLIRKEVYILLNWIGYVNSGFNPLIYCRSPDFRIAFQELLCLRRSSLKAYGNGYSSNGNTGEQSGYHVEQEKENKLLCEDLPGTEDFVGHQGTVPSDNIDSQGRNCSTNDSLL

hADRβ1 [3] = target: T29, hADRβ1; experiment: β-arrestin Antagonist (Eurofins-CEREP); details: read-out: % Effect, Inhibition

Cc1cn(CCN2CCN(c3ccccc3-c3cc(C#N)cc(C(=O)NCCCN4CCCC4)c3)CC2)c2ccccc12 [LLY-507, 3-cyano-5-{2-[4-[2-(3-methylindol-1-yl)ethyl]piperazin-1-yl]-phenyl}-N-[(3-pyrrolidin-1-yl)propyl]benzamide]
IC50 (hABL1(pM351T)): > 20 µM
IC50 (hADCK4): > 20 µM
IC50 (bacPKNB): > 20 µM
IC50 (hBRSK2): > 20 µM
inhibition at 20 µM (hCSF1R-autoinhib): < 50%
IC50 (hDRAK2): > 20 µM
IC50 (hDYRK1A): > 20 µM
IC50 (hEPHA4): > 20 µM
IC50 (hEPHA5): > 20 µM
IC50 (hFGR): > 20 µM
IC50 (hFLT3): > 20 µM
IC50 (hIRAK4): > 20 µM
IC50 (hKIT-autoinhibited): > 20 µM
IC50 (hLIMK1): > 20 µM
IC50 (hMAST1): > 20 µM
IC50 (hMEK3): > 20 µM
IC50 (hMEK6): > 20 µM
IC50 (hMLCK): > 20 µM
IC50 (hRIPK4): > 20 µM
IC50 [1]: > 20 µM
IC50 (hSIK): > 20 µM
IC50 (hTAK1): > 20 µM
IC50 (hTAOK2): > 20 µM
IC50 (hTRKA): > 20 µM
IC50 (hYANK1): > 20 µM
IC50 (hRARα): > 10 µM
% Effect, Stimulation (hADORA3): 2.6%
% Effect, Stimulation (hADRα2A): 0.2%
% Effect, Potentiation (hADRβ1 [2]): 32.1%
% Effect, Potentiation (hADRβ2): -27.2%
inhibition at 10 µM (hADRβ1 [3]): -6%
